Experimental data published in article PMC8793051 (ACS Omega, 2022).

Legend:
MALME-3M = assay: NCI-60 SRB growth assay; format: cell-based, human
SW-620 = assay: NCI-60 SRB growth assay; format: cell-based, human
K-562 = assay: NCI-60 SRB growth assay; format: cell-based, human
HS 578T = assay: NCI-60 SRB growth assay; format: cell-based, human; conditions: HS578T
MOLT-4 = assay: NCI-60 SRB growth assay; format: cell-based, human
COLO 205 = assay: NCI-60 SRB growth assay; format: cell-based, human
SF-295 = assay: NCI-60 SRB growth assay; format: cell-based, human
SK-MEL-2 = assay: NCI-60 SRB growth assay; format: cell-based, human; conditions: SK-MEL-2
[1] = system: panel of 60 human cancer cell lines; assay: cells; conditions: read-out: GI50 concentration range
CAKI-1 = assay: NCI-60 SRB growth assay; format: cell-based, human
NCI-H460 = assay: NCI-60 SRB growth assay; format: cell-based, human
DU-145 = assay: NCI-60 SRB growth assay; format: cell-based, human
HCT-15 = assay: NCI-60 SRB growth assay; format: cell-based, human
A549/ATCC = assay: NCI-60 SRB growth assay; format: cell-based, human
SN12C = assay: NCI-60 SRB growth assay; format: cell-based, human
[2] = system: oligo-2: d(CGATGTACATCG)2; assay: UV thermal denaturation; format: binding
CCRF-CEM = assay: NCI-60 SRB growth assay; format: cell-based, human
UO-31 = assay: NCI-60 SRB growth assay; format: cell-based, human
KM12 = assay: NCI-60 SRB growth assay; format: cell-based, human
[3] = system: oligo-2: d(CGATGTACATCG)2; assay: Fluorescence titration; format: binding; conditions: 20 °C, pH 7.2
ACHN = assay: NCI-60 SRB growth assay; format: cell-based, human
NCI/ADR-RES = assay: NCI-60 SRB growth assay; format: cell-based, human
NCI-H226 = assay: NCI-60 SRB growth assay; format: cell-based, human
NCI-H522 = assay: NCI-60 SRB growth assay; format: cell-based, human
OVCAR-4 = assay: NCI-60 SRB growth assay; format: cell-based, human
HOP-92 = assay: NCI-60 SRB growth assay; format: cell-based, human
M14 = assay: NCI-60 SRB growth assay; format: cell-based, human
MDA-MB-231/ATCC = assay: NCI-60 SRB growth assay; format: cell-based, human
HCC-2998 = assay: NCI-60 SRB growth assay; format: cell-based, human
UACC-62 = assay: NCI-60 SRB growth assay; format: cell-based, human
RPMI-8226 = assay: NCI-60 SRB growth assay; format: cell-based, human
SNB-75 = assay: NCI-60 SRB growth assay; format: cell-based, human
BT-549 = assay: NCI-60 SRB growth assay; format: cell-based, human

Which GI50 (MALME-3M; Homo sapiens, Malme-3M) does the source give for `CCCN1CCN(c2ccc3[nH]c(-c4ccc5[nH]c(-c6ccc(OCC)c(OCC)c6)nc5c4)nc3c2)CC1` [11a, 2-(2-(3,4-Diethoxyphenyl)-1H-benzo[d]imidazol-5-yl)-5-(4-propylpiperazin-1-yl)-1H-benzo[d]imidazole] here?
Its GI50 is 80 nM.

What about the CC50 (MALME-3M; Homo sapiens, Malme-3M, read-out: LC50) of the same compound?
The CC50 was 3900 nM.

What about the TGI (MALME-3M; MALME-3M) of the same compound?
The TGI was 1200 nM.

What about the GI50 (SW-620; Homo sapiens, SW-620) of the same compound?
Its GI50 is 300 nM.

What about the CC50 (SW-620; Homo sapiens, SW-620, read-out: LC50) of the same compound?
The CC50 was 4300 nM.

And the TGI (SW-620; SW620)?
Its TGI is 1200 nM.

And the GI50 (K-562; Homo sapiens, K562)?
Its GI50 is 310 nM.

And the TGI (K-562; K-562)?
Its TGI is 1500 nM.

And the TGI (HS 578T)?
Its TGI is greater than 100000 nM.

And the GI50 (MOLT-4; Homo sapiens, MOLT-4)?
The GI50 was 590 nM.

And the CC50 (MOLT-4; Homo sapiens, MOLT-4, read-out: LC50)?
The CC50 was greater than 100000 nM.

And the TGI (MOLT-4; MOLT-4)?
The TGI was 4400 nM.

And the TGI (COLO 205; COLO 205)?
Its TGI is 1290 nM.

What about the GI50 (COLO 205; Homo sapiens, COLO 205) of the same compound?
The GI50 was 160 nM.

What about the CC50 (COLO 205; Homo sapiens, COLO 205, read-out: LC50) of the same compound?
The CC50 was 5400 nM.

And the GI50 (SF-295; Homo sapiens, SF-295)?
The GI50 was 500 nM.

And the CC50 (SF-295; Homo sapiens, SF-295, read-out: LC50)?
Its CC50 is 7800 nM.

What about the TGI (SF-295; SF-265) of the same compound?
Its TGI is 2300 nM.

And the GI50 (SK-MEL-2; Homo sapiens)?
The GI50 was 14000 nM.

And the TGI (SK-MEL-2)?
The TGI was 3100 nM.

What about the GI50 [1] of the same compound?
The GI50 was 160 to 3600 nM.

What about the TGI (CAKI-1; CAKI-1) of the same compound?
The TGI was 3030 nM.

What about the GI50 (CAKI-1; Homo sapiens, CAKI-1) of the same compound?
Its GI50 is 1040 nM.

And the CC50 (CAKI-1; Homo sapiens, CAKI-1, read-out: LC50)?
Its CC50 is 8800 nM.

What about the GI50 (NCI-H460; Homo sapiens, NCI-H460) of the same compound?
The GI50 was 430 nM.

What about the CC50 (NCI-H460; Homo sapiens, NCI-H460, read-out: LC50) of the same compound?
Its CC50 is 4380 nM.

What about the TGI (NCI-H460; NCI–H460) of the same compound?
The TGI was 1510 nM.

What about the TGI (DU-145; DU-145) of the same compound?
Its TGI is 2020 nM.

What about the GI50 (DU-145; Homo sapiens, DU-145) of the same compound?
Its GI50 is 440 nM.

And the CC50 (DU-145; Homo sapiens, DU-145, read-out: LC50)?
The CC50 was 12400 nM.

What about the TGI (HCT-15; HCT-15) of the same compound?
Its TGI is 18900 nM.

What about the GI50 (HCT-15; Homo sapiens, HCT-15) of the same compound?
The GI50 was 2420 nM.

What about the CC50 (HCT-15; Homo sapiens, HCT-15, read-out: LC50) of the same compound?
The CC50 was greater than 100000 nM.

What about the TGI (A549/ATCC; A549/ATCC) of the same compound?
The TGI was 3020 nM.

And the GI50 (A549/ATCC; Homo sapiens, A549)?
The GI50 was 1170 nM.

And the GI50 (SN12C; Homo sapiens, SN12C)?
Its GI50 is 450 nM.

What about the CC50 (SN12C; Homo sapiens, SN12C, read-out: LC50) of the same compound?
The CC50 was 6750 nM.

And the TGI (SN12C; SN12c)?
The TGI was 2060 nM.

What about the Tm ([2]; r = 0.5, oligo 2.5 μM) of the same compound?
Its Tm is 57.9 °C.

And the Tm ([2]; r = 1)?
The Tm was 58.9 °C.

What about the ΔTm ([2]; r = 1) of the same compound?
The ΔTm was 2 °C.

What about the Tm ([2]; r = 1.5) of the same compound?
Its Tm is 58.9 °C.

And the ΔTm ([2]; r = 1.5)?
Its ΔTm is 2 °C.

What about the ΔTm ([2]; r = 2.0) of the same compound?
The ΔTm was 2 °C.

And the TGI (CCRF-CEM)?
Its TGI is 3600 nM.

What about the GI50 (CCRF-CEM; Homo sapiens) of the same compound?
The GI50 was 400 nM.

And the CC50 (CCRF-CEM; Homo sapiens, read-out: LC50)?
Its CC50 is greater than 100000 nM.

And the GI50 (UO-31; Homo sapiens, UO-31)?
Its GI50 is 1670 nM.

And the CC50 (UO-31; Homo sapiens, UO-31, read-out: LC50)?
Its CC50 is 8760 nM.

What about the TGI (UO-31; UO-31) of the same compound?
The TGI was 3820 nM.

And the GI50 (KM12; Homo sapiens, KM12)?
The GI50 was 1260 nM.

What about the CC50 (KM12; Homo sapiens, KM12, read-out: LC50) of the same compound?
Its CC50 is 6400 nM.

And the TGI (KM12; KM12)?
Its TGI is 2800 nM.

What about the “Ka binding affinity with oligo-2” value [3] of the same compound?
Its value is 5 × 10^6 M^1.

What about the TGI (ACHN) of the same compound?
Its TGI is 2100 nM.

And the GI50 (ACHN; Homo sapiens)?
The GI50 was 820 nM.

What about the CC50 (ACHN; Homo sapiens, read-out: LC50) of the same compound?
Its CC50 is 4770 nM.

What about the TGI (NCI/ADR-RES) of the same compound?
Its TGI is greater than 100000 nM.

What about the GI50 (NCI/ADR-RES; Homo sapiens) of the same compound?
The GI50 was greater than 100000 nM.

What about the CC50 (NCI/ADR-RES; Homo sapiens, read-out: LC50) of the same compound?
The CC50 was greater than 100000 nM.

And the GI50 (NCI-H226; Homo sapiens, NCI-H226)?
The GI50 was 800 nM.

And the CC50 (NCI-H226; Homo sapiens, NCI-H226, read-out: LC50)?
Its CC50 is 37500 nM.

And the TGI (NCI-H226; NCI–H226)?
Its TGI is 3500 nM.

And the GI50 (NCI-H522; Homo sapiens, NCI-H522)?
Its GI50 is 450 nM.

And the TGI (NCI-H522; NCI–H522)?
The TGI was 2110 nM.

What about the GI50 (OVCAR-4; Homo sapiens, OVCAR-4) of the same compound?
The GI50 was 690 nM.

What about the CC50 (OVCAR-4; Homo sapiens, OVCAR-4, read-out: LC50) of the same compound?
The CC50 was 9500 nM.

And the TGI (OVCAR-4; OVCAR-4)?
Its TGI is 2800 nM.

What about the TGI (HOP-92; HOP-92) of the same compound?
The TGI was 4500 nM.

And the GI50 (HOP-92; Homo sapiens, HOP-92)?
Its GI50 is 1200 nM.

And the CC50 (HOP-92; Homo sapiens, HOP-92, read-out: LC50)?
Its CC50 is 26300 nM.

What about the GI50 (M14; Homo sapiens, M14) of the same compound?
Its GI50 is 250 nM.

What about the CC50 (M14; Homo sapiens, M14, read-out: LC50) of the same compound?
The CC50 was 5000 nM.

What about the TGI (M14; M14) of the same compound?
Its TGI is 1500 nM.

And the GI50 (MDA-MB-231/ATCC; Homo sapiens, MDA-MB-231)?
The GI50 was 1380 nM.

What about the CC50 (MDA-MB-231/ATCC; Homo sapiens, MDA-MB-231, read-out: LC50) of the same compound?
The CC50 was 6780 nM.

What about the TGI (MDA-MB-231/ATCC; MDA-MB-231) of the same compound?
Its TGI is 3060 nM.

What about the TGI (HCC-2998; HCC-2998) of the same compound?
The TGI was 2620 nM.

And the GI50 (HCC-2998; Homo sapiens, HCC 2998)?
Its GI50 is 1240 nM.

And the CC50 (HCC-2998; Homo sapiens, HCC 2998, read-out: LC50)?
Its CC50 is 5500 nM.

What about the GI50 (UACC-62; Homo sapiens, UACC-62) of the same compound?
Its GI50 is 400 nM.

And the CC50 (UACC-62; Homo sapiens, UACC-62, read-out: LC50)?
Its CC50 is 5300 nM.

And the TGI (UACC-62; UACC-62)?
Its TGI is 1900 nM.

What about the GI50 (RPMI-8226; Homo sapiens, RPMI-8226) of the same compound?
Its GI50 is 470 nM.

And the CC50 (RPMI-8226; Homo sapiens, RPMI-8226, read-out: LC50)?
Its CC50 is greater than 100000 nM.

And the TGI (RPMI-8226; RPMI-8226)?
Its TGI is 2500 nM.

And the GI50 (SNB-75; Homo sapiens, SNB-75)?
The GI50 was 710 nM.

And the CC50 (SNB-75; Homo sapiens, SNB-75, read-out: LC50)?
The CC50 was 4300 nM.

And the TGI (SNB-75; SNB-75)?
Its TGI is 1900 nM.

What about the TGI (BT-549; BT-549) of the same compound?
Its TGI is 2720 nM.

What about the GI50 (BT-549; Homo sapiens, BT-549) of the same compound?
Its GI50 is 1220 nM.

And the CC50 (BT-549; Homo sapiens, BT-549, read-out: LC50)?
The CC50 was 6070 nM.
